Results as given in patent publication US20210196724A1, “BIARYL COMPOSITIONS AND METHODS FOR MODULATING A KINASE CASCADE” (Athenex, Inc., priority 2016, published 2021).
pIC50: −log10 of the molar value.

Assays:
Format in all cases: cell-based
Conditions in all cases: 72 h
[1] = system: HL-60 cells; experiment: CellTiter-Glo cell viability, HL-60
Experimental: (§1) The cell viability of 50 cancer cell lines was studied after treatment with Compound 121. Inhibition concentration values at 50% (IC50) were determined using CellTiter-Glo luminescent cell viability assay after incubation with different compound concentrations. GI50 values were determined according to the examples described above. Each cell line was treated with Compound 121, a standard chemotherapy drug as a reference control, and culture medium as a vehicle control.
(§2) All cells were cultured in media supplemented with 10-15% FBS at 37° C. in the presence of 5% CO2 and at 95% humidity. The culture medium was purchased from GIBCO or Sigma, USA. Cisplatin was chosen as the reference control and purchased from Hospira Australia Pty Ltd. The cell lines studied are presented in Table 5.
(§3) Cells were harvested during a logarithmic growth period and cell number count was determined using Count-star. Cell concentrations were adjusted to 4.44×10^4 cells/mL with respective culture medium. 90 μL of cell suspensions were added to two 96-well plates (plates A and B) with a final cell density of 4×10^3 cells/well.
(§4) 10 μL of culture medium was added to each well of plate A for TO reading. The plate was allowed to equilibrate at room temperature for approximately 30 min. 50 μL of CellTiter-Glo was added to each well and the contents were mixed for 5 min on an orbital shaker to induce cell lysis. The plate was allowed to incubate at room temperature for 20 min to stabilize luminescent signal.
(§5) 10 μM Compound 121 in media was serially diluted 3.16-fold to achieve 9 dose levels. Similarly, 100 μM reference control in media was serially diluted 3.16-fold to prepare reference control solutions. 10 μL drug solution and 10 μL of reference control was dispensed into each well in plate B.
(§6) Test plate B was incubated for 72 h in a humidified incubator at 37° C. in the presence of 5% CO2 and then subjected to CTG assay. The plate was allowed to equilibrate at room temperature for about 30 min. 50 μL of CellTiter-Glo was added to each well and the contents were mixed for 5 min on an orbital shaker to induce cell lysis. The plate was allowed to incubate at room temperature for 20 min to stabilize luminescent signal.
(§7) IC50 and GI50 values for each of the 50 cell lines are presented in Table 6 and were calculated based on the dose-response curves depicted in FIGS. 1-50. The dose-response curves were fitted using nonlinear regression model with a sigmoidal dose response. The formula for calculating survival rate was calculated by the formula:
(§8) Survival rate (%)=(LumTest article−LumMedium control)/(LumNone treated−LumMedium control)×100.

[2] = system: NCI-N87 cells; experiment: CellTiter-Glo cell viability, NCI-N87
Experimental: as §1, §2, §3, §4, §5, §6, §7, §8

[3] = system: JEG-3 cells; experiment: CellTiter-Glo cell viability, JEG-3
Experimental: as §1, §2, §3, §4, §5, §6, §7, §8

[4] = system: EBC-1 cells; experiment: CellTiter-Glo cell viability, EBC-1
Experimental: as §1, §2, §3, §4, §5, §6, §7, §8

[5] = system: NCI-H1155 cells; experiment: CellTiter-Glo cell viability, NCI-H1155
Experimental: as §1, §2, §3, §4, §5, §6, §7, §8

[6] = system: A2058 cells; experiment: CellTiter-Glo cell viability, A2058
Experimental: as §1, §2, §3, §4, §5, §6, §7, §8

[7] = system: TJ905 cells; experiment: CellTiter-Glo cell viability, TJ905
Experimental: as §1, §2, §3, §4, §5, §6, §7, §8

[8] = system: BT474 cells; experiment: CellTiter-Glo cell viability, BT474
Experimental: as §1, §2, §3, §4, §5, §6, §7, §8

[9] = system: KARPAS-299 cells; experiment: CellTiter-Glo cell viability, KARPAS-299
Experimental: as §1, §2, §3, §4, §5, §6, §7, §8

[10] = system: JHH-5 cells; experiment: CellTiter-Glo cell viability, JHH-5
Experimental: as §1, §2, §3, §4, §5, §6, §7, §8

[11] = system: Molt-4 cells; experiment: CellTiter-Glo cell viability, Molt-4
Experimental: as §1, §2, §3, §4, §5, §6, §7, §8

[12] = system: SCC-4 cells; experiment: CellTiter-Glo cell viability, SCC-4
Experimental: as §1, §2, §3, §4, §5, §6, §7, §8

[13] = system: RPMI 8226 cells; experiment: CellTiter-Glo cell viability, RPMI 8226
Experimental: as §1, §2, §3, §4, §5, §6, §7, §8

[14] = system: MX-1 cells; experiment: CellTiter-Glo cell viability, MX-1
Experimental: as §1, §2, §3, §4, §5, §6, §7, §8

[15] = system: AsPC-1 cells; experiment: CellTiter-Glo cell viability, AsPC-1
Experimental: as §1, §2, §3, §4, §5, §6, §7, §8

[16] = system: HuCCT1 cells; experiment: CellTiter-Glo cell viability, HuCCT1
Experimental: as §1, §2, §3, §4, §5, §6, §7, §8

[17] = system: SK-N-FI cells; experiment: CellTiter-Glo cell viability, SK-N-FI
Experimental: as §1, §2, §3, §4, §5, §6, §7, §8

[18] = system: KP4 cells; experiment: CellTiter-Glo cell viability, KP4
Experimental: as §1, §2, §3, §4, §5, §6, §7, §8

[19] = system: HCT-116 cells; experiment: CellTiter-Glo cell viability, HCT-116
Experimental: as §1, §2, §3, §4, §5, §6, §7, §8

[20] = system: A-172 cells; experiment: CellTiter-Glo cell viability, A-172
Experimental: as §1, §2, §3, §4, §5, §6, §7, §8

[21] = system: NCI-H209 cells; experiment: CellTiter-Glo cell viability, NCI-H209
Experimental: as §1, §2, §3, §4, §5, §6, §7, §8

[22] = top conc. 10 μM Compound 121, 100 μM cisplatin

With `N.N.[Cl][Pt][Cl]` [Cisplatin, reference compound] the GI50 ([1]; read-out: Absolute GI50) was 1.34 µM, the pIC50 ([1]; read-out: Absolute IC50) was 5.84 and the “% inhibition at top conc.” value [1, 22] was 99.99%. The GI50 ([2]; read-out: Absolute GI50) was 0.88 µM, the pIC50 ([2]; read-out: Absolute IC50) was 5.65 and the “% inhibition at top conc.” value [2, 22] was 90.08%. For the same compound, the GI50 ([3]; read-out: Absolute GI50) was 5.5 µM, the pIC50 ([3]; read-out: Absolute IC50) was 5.03 and the “% inhibition at top conc.” value [3, 22] was 99.90%. For the same compound, the GI50 ([4]; read-out: Absolute GI50) was 11.8 µM, the pIC50 ([4]; read-out: Absolute IC50) was 4.76 and the “% inhibition at top conc.” value [4, 22] was 84.49%. The GI50 ([5]; read-out: Absolute GI50) was 1.52 µM, the pIC50 ([5]; read-out: Absolute IC50) was 5.76 and the “% inhibition at top conc.” value [5, 22] was 90.61%. The GI50 ([6]; read-out: Absolute GI50) was 2.38 µM, the pIC50 ([6]; read-out: Absolute IC50) was 5.51 and the “% inhibition at top conc.” value [6, 22] was 99.85%. The GI50 ([7]; read-out: Absolute GI50) was 6.56 µM, the pIC50 ([7]; read-out: Absolute IC50) was 5.01 and the “% inhibition at top conc.” value [7, 22] was 80.57%. For the same compound, the GI50 ([8]; read-out: Absolute GI50) was 39.3 µM, the pIC50 ([8]; read-out: Absolute IC50) was 4.35 and the “% inhibition at top conc.” value [8, 22] was 59.96%. The GI50 ([9]; read-out: Absolute GI50) was 1.49 µM, the pIC50 ([9]; read-out: Absolute IC50) was 5.79 and the “% inhibition at top conc.” value [9, 22] was 99.99%. For the same compound, the GI50 ([10]; read-out: Absolute GI50) was 1.97 µM, the pIC50 ([10]; read-out: Absolute IC50) was 5.64 and the “% inhibition at top conc.” value [10, 22] was 87.18%. For the same compound, the GI50 ([11]; read-out: Absolute GI50) was 0.61 µM, the pIC50 ([11]; read-out: Absolute IC50) was 6.15 and the “% inhibition at top conc.” value [11, 22] was 99.96%. The GI50 ([12]; read-out: Absolute GI50) was 3.43 µM, the pIC50 ([12]; read-out: Absolute IC50) was 5.38 and the “% inhibition at top conc.” value [12, 22] was 99.29%. The GI50 ([13]; read-out: Absolute GI50) was 2.38 µM, the pIC50 ([13]; read-out: Absolute IC50) was 5.44 and the “% inhibition at top conc.” value [13, 22] was 99.76%. For the same compound, the GI50 ([14]; read-out: Absolute GI50) was 5.69 µM, the pIC50 ([14]; read-out: Absolute IC50) was 5.15 and the “% inhibition at top conc.” value [14, 22] was 98.97%. For the same compound, the GI50 ([15]; read-out: Absolute GI50) was 2.73 µM, the pIC50 ([15]; read-out: Absolute IC50) was 5.48 and the “% inhibition at top conc.” value [15, 22] was 72.39%. The GI50 ([16]; read-out: Absolute GI50) was 6.59 µM, the pIC50 ([16]; read-out: Absolute IC50) was 5.07 and the “% inhibition at top conc.” value [16, 22] was 90.42%. The GI50 ([17]; read-out: Absolute GI50) was 5.8 µM, the pIC50 ([17]; read-out: Absolute IC50) was 5.03 and the “% inhibition at top conc.” value [17, 22] was 99.77%. The GI50 ([18]; read-out: Absolute GI50) was 6.87 µM, the pIC50 ([18]; read-out: Absolute IC50) was 5.06 and the “% inhibition at top conc.” value [18, 22] was 98.30%. For the same compound, the GI50 ([19]; read-out: Absolute GI50) was 4.14 µM, the pIC50 ([19]; read-out: Absolute IC50) was 5.36 and the “% inhibition at top conc.” value [19, 22] was 95.29%. For the same compound, the GI50 ([20]; read-out: Absolute GI50) was 15.9 µM, the pIC50 ([20]; read-out: Absolute IC50) was 4.69 and the “% inhibition at top conc.” value [20, 22] was 93.09%. For the same compound, the GI50 ([21]; read-out: Absolute GI50) was 0.14 µM, the pIC50 ([21]; read-out: Absolute IC50) was 6.64 and the “% inhibition at top conc.” value [21, 22] was 98.81%.
